ChEMBL document CHEMBL3639166, “Heteroaryloxyheterocyclyl compounds as PDE10 inhibitors” (2013)

Biological target: T1, cAMP and cAMP-inhibited cGMP 3',5'-cyclic phosphodiesterase 10A (Rattus norvegicus, UniProt Q9QYJ6)
T1 sequence (Q9QYJ6 whole entry): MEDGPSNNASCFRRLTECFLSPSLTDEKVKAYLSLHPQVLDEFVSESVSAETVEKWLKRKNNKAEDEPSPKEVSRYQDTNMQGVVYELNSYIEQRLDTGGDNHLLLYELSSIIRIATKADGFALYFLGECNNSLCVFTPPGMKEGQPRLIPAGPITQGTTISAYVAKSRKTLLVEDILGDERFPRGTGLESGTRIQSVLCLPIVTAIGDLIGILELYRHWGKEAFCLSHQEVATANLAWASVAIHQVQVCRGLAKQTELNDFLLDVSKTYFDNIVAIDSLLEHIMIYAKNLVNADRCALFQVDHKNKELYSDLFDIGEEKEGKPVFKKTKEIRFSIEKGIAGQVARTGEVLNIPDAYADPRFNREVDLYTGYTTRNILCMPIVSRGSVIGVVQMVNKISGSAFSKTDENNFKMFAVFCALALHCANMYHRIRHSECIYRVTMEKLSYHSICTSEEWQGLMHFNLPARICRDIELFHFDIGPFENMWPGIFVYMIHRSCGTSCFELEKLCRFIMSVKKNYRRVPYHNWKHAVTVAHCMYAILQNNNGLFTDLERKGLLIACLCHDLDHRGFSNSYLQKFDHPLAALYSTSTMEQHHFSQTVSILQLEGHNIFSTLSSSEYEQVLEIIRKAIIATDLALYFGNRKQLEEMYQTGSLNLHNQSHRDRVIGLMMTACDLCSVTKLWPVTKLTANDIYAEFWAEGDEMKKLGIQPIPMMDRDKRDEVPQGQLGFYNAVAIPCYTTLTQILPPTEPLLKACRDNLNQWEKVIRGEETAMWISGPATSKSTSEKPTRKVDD
Assay: Enzyme Inhibition Assay: Enzyme activity: An IMAP TR-FRET assay was used to analyze the enzyme activity (Molecular Devices Corp., Sunnyvale, Calif).

SMILES	IC50 [nM]
CC(=O)N1CCC(c2nccnc2OC2CN(c3ccc4ccccc4n3)C2)CC1	8.39
O=C1CCC(c2nccnc2OC2CN(C(=O)c3nc4ccccc4[nH]3)C2)CC1	114
O=C(c1ccc2ccccc2n1)N1CCC(Oc2nccnc2N2CCOCC2)CC1	1080
CC(=O)N1CC=C(c2nccnc2OC2CCN(C(=O)c3nc4ccccc4[nH]3)CC2)CC1	71.8
CC(=O)N1CC=C(c2nccnc2OC2CN(C(=O)c3nc4ccccc4[nH]3)C2)CC1	10.4
CC(=O)N1CCCC(c2cccnc2OC2CN(C(=O)c3ccccn3)C2)C1 (stereo not given)	41
CC(=O)N1CCCC(c2cccnc2OC2CN(C(=O)c3nc4ccccc4[nH]3)C2)C1 (stereo not given)	6.47
CC(C)C(=O)N1CCCC(c2cccnc2OC2CN(C(=O)c3nc4ccccc4[nH]3)C2)C1 (stereo not given)	41.4
CC(=O)N1CC=C(c2nccnc2OC2CN(C(=O)c3ccc[nH]3)C2)CC1	210
CC(=O)N1CCC=C(c2nccnc2OC2CN(C(=O)c3nc4ccccc4[nH]3)C2)C1	121
CC(=O)N1CCC(c2cnc(N3CCC(CO)CC3)nc2OC2CN(c3ccc4ccccc4n3)C2)CC1	0.39
COCC#Cc1nccnc1OC1CN(c2ccc3ccccc3n2)C1	282
c1cnc(OC2CN(c3ccc4ccccc4n3)C2)c(N2CCOCC2)c1	12
CC(=O)N1CCC(c2cccnc2OC2CN(C(=O)OC(C)(C)C)C2)CC1	10200
O=C(c1nc2ccccc2[nH]1)N1CC(Oc2ncccc2C2=CCOCC2)C1	0.864
CC(C)(C)OC(=O)N1CC(Oc2ncccc2[C@H]2CC[C@H](O)CC2)C1	15.8
O=C(c1nc2ccccc2[nH]1)N1CC(Oc2ncccc2[C@H]2CC[C@@H](O)CC2)C1	21.1
CC(=O)N1CCCC(c2cccnc2OC2CN(C(=O)c3cc(C)c[nH]3)C2)C1 (stereo not given)	7940
CC(=O)N1CC=C(c2nccnc2OC2CN(C(=O)c3cc(C)c[nH]3)C2)CC1	250
CC(=O)N1CCCC(c2cccnc2OC2CN(C(=O)c3cc4ccccc4[nH]3)C2)C1 (stereo not given)	886
CC(O)C1CCN(c2ccnnc2OC2CN(c3ccc4ccccc4n3)C2)CC1 (stereo not given)	76.7
OCC1CCN(c2nccc(OC3CN(c4ccc5ccccc5n4)C3)n2)CC1	14.2
O=C(c1nc2ccccc2[nH]1)N1CC[C@@H](Oc2nccnc2C2CCOCC2)C1	2780
O=C(c1ccncn1)N1CC(Oc2ncccc2C2=CCOCC2)C1	990

SMILES	IC50 [nM]
O=C(c1ncc[nH]1)N1CCC(Oc2ncccc2C2CCOCC2)CC1	3670
O=C(c1ccc[nH]1)N1CCC(Oc2ncccc2C2CCOCC2)CC1	4260
O=C(c1ccccn1)N1CCC(Oc2ncccc2C2CCOCC2)CC1	1260
Cc1cccc(C(=O)N2CCC(Oc3ncccc3C3CCOCC3)CC2)n1	1180
Cc1ccc(C(=O)N2CCC(Oc3ncccc3C3CCOCC3)CC2)nc1	1650
Cc1ccnc(C(=O)N2CCC(Oc3ncccc3C3CCOCC3)CC2)c1	118
Cc1cccnc1C(=O)N1CCC(Oc2ncccc2C2CCOCC2)CC1	1000
O=C(c1nc2ccccc2s1)N1CCC(Oc2ncccc2C2CCOCC2)CC1	324
O=C(c1cc2ccccc2cn1)N1CCC(Oc2ncccc2C2CCOCC2)CC1	126
O=C(c1cc(Cl)ccn1)N1CCC(Oc2ncccc2C2CCOCC2)CC1	8890
O=C(c1nc2ccccc2[nH]1)N1CC[C@H](Oc2ncccc2C2=CCOCC2)C1	715
O=C(c1nc2ccccc2[nH]1)N1CC[C@@H](Oc2ncccc2C2=CCOCC2)C1	767
O=C(c1nc2ccccc2[nH]1)N1CC(Oc2nccnc2C2CCOCC2)C1	884
O=C(c1nc2ccccc2[nH]1)N1CCC(Oc2ncccc2C2CCOCC2)CC1	116
CC(=O)N1CCC(c2cccnc2OC2CN(C(=O)c3nc4ccccc4[nH]3)C2)CC1	102
CC(=O)N1CC=C(c2nccnc2OC2CN(C(=O)c3ccc(C)cn3)C2)CC1	1030
CC(=O)N1CCCC(c2cccnc2OC2CN(C(=O)c3ccc(C)nc3)C2)C1 (stereo not given)	8340
CC(=O)N1CCCC(c2cccnc2OC2CN(C(=O)CC(C)(C)C)C2)C1 (stereo not given)	41800
CC(=O)N1CCC(c2nccnc2OC2CN(C(=O)c3ccc[nH]3)C2)CC1	139
O=C(c1nc2ccccc2[nH]1)N1CC(Oc2cnccn2)C1	12300
O=C(c1nc2ccccc2[nH]1)N1CC(Oc2nc3ccccc3nc2C2CCOCC2)C1	786
O=C(c1ccc2ccccc2n1)N1CCC(Oc2ncccc2C2CCOCC2)CC1	809
O=C(c1ccc2ccccc2n1)N1CCC(Oc2nccnc2C2CCOCC2)CC1	994
O=C(c1nccc2ccccc12)N1CCC(Oc2nccnc2C2CCOCC2)CC1	7320

SMILES	IC50 [nM]
Cc1cc(-c2nccnc2OC2CCN(C(=O)c3ccc4ccccc4n3)CC2)ccn1	2660
Cc1cc(-c2nccnc2OC2CCN(C(=O)c3nccc4ccccc34)CC2)ccn1	3590
Cc1cc(-c2cccnc2OC2CCN(C(=O)c3ccc4ccccc4n3)CC2)ccn1	1230
Cc1cc(-c2cccnc2OC2CCN(C(=O)c3nccc4ccccc34)CC2)ccn1	2130
O=C(c1nccc2ccccc12)N1CCC(Oc2ncccc2N2CCOCC2)CC1	11100
O=C(c1nccc2ccccc12)N1CCC(Oc2nccnc2N2CCOCC2)CC1	5400
O=C(c1nc2ccccc2[nH]1)N1CC[C@@H](Oc2ncccc2C2CCOCC2)C1	1820
O=C(c1nc2ccccc2[nH]1)N1CC[C@H](Oc2ncccc2C2CCOCC2)C1	409
c1cnc(OC2CN(c3ccc4ccccc4n3)C2)c(C2CCOCC2)c1	1800
c1ccc2cc(N3CC(Oc4nccnc4C4CCOCC4)C3)ncc2c1	4960
c1ccc2c(N3CC(Oc4nccnc4C4CCOCC4)C3)nccc2c1	4410
c1ccc2nc(N3CC(Oc4nccnc4C4CCOCC4)C3)ccc2c1	331
c1ccc(N2CCC(Oc3nccnc3C3CCOCC3)CC2)nc1	2390
Cc1ccnc(N2CCC(Oc3nccnc3C3CCOCC3)CC2)c1	1330
Cc1cccc(N2CCC(Oc3nccnc3C3CCOCC3)CC2)n1	1440
Cc1cccnc1N1CCC(Oc2ncccc2C2CCOCC2)CC1	568
Cc1ccnc(N2CCC(Oc3ncccc3C3CCOCC3)CC2)c1	236
Cc1ccc(N2CCC(Oc3ncccc3C3CCOCC3)CC2)nc1	262
Cc1cccc(N2CCC(Oc3ncccc3C3CCOCC3)CC2)n1	1670
c1ccc2c(N3CCC(Oc4nccnc4C4CCOCC4)CC3)nccc2c1	2810
c1ccc2cc(N3CCC(Oc4nccnc4C4CCOCC4)CC3)ncc2c1	235
c1ccc2nc(N3CCC(Oc4nccnc4C4CCOCC4)CC3)ccc2c1	69.3
c1ccc2[nH]c(N3CCC(Oc4nccnc4C4CCOCC4)CC3)nc2c1	229
c1cnc(OC2CCN(c3nccc4ccccc34)CC2)c(C2CCOCC2)c1	1810

SMILES	IC50 [nM]
c1cnc(OC2CCN(c3cc4ccccc4cn3)CC2)c(C2CCOCC2)c1	353
c1cnc(OC2CCN(c3nc4ccccc4[nH]3)CC2)c(C2CCOCC2)c1	199
c1cnc(O[C@H]2CCN(c3ccc4ccccc4n3)C2)c(C2CCOCC2)c1	340
c1cnc(O[C@H]2CCN(c3cc4ccccc4cn3)C2)c(C2CCOCC2)c1	2970
c1cnc(O[C@H]2CCN(c3nccc4ccccc34)C2)c(C2CCOCC2)c1	730
c1cnc(O[C@H]2CCN(c3nc4ccccc4[nH]3)C2)c(C2CCOCC2)c1	2470
c1cnc(O[C@@H]2CCN(c3ccc4ccccc4n3)C2)c(C2CCOCC2)c1	384
c1cnc(O[C@@H]2CCN(c3cc4ccccc4cn3)C2)c(C2CCOCC2)c1	1830
c1cnc(O[C@@H]2CCN(c3nccc4ccccc34)C2)c(C2CCOCC2)c1	981
c1cnc(O[C@@H]2CCN(c3nc4ccccc4[nH]3)C2)c(C2CCOCC2)c1	3590
c1ccc2nc(N3CC[C@H](Oc4nccnc4C4CCOCC4)C3)ccc2c1	447
c1ccc2cc(N3CC[C@H](Oc4nccnc4C4CCOCC4)C3)ncc2c1	1360
c1ccc2c(N3CC[C@H](Oc4nccnc4C4CCOCC4)C3)nccc2c1	819
c1ccc2nc(N3CC[C@@H](Oc4nccnc4C4CCOCC4)C3)ccc2c1	109
c1ccc2c(N3CC[C@@H](Oc4nccnc4C4CCOCC4)C3)nccc2c1	4430
c1ccc2[nH]c(N3CC[C@@H](Oc4nccnc4C4CCOCC4)C3)nc2c1	306
CC(=O)N1CC=C(c2cccnc2OC2CN(c3nc4ccccc4s3)C2)CC1	346
CC(=O)N1CCC(c2nccnc2OC2CN(c3nc4ccccc4[nH]3)C2)CC1	690
CC(=O)N1CC=C(c2nccnc2OC2CN(c3nc4ccccc4s3)C2)CC1	63.1
O=[N+]([O-])c1ccc(N2CCC(Oc3ncccc3C3CCOCC3)CC2)nc1	1400
Nc1ccc(N2CCC(Oc3ncccc3C3CCOCC3)CC2)nc1	1700
Clc1ccc(N2CCC(Oc3ncccc3C3CCOCC3)CC2)nc1	1410
Brc1ccc(N2CCC(Oc3ncccc3C3CCOCC3)CC2)nc1	138
